The values below come from patent US11718618B2, “Substituted pyrido[2,1-a]isoquinolines as VMAT2 inhibitors” (priority 2021, dated 2023).

Data set [1] in a line: Stability of compounds in human liver microsomes. It counts as in vitro ADME. The following applies: for CLint scaled at 0.5 μM / half-life at 0.5 μM: both sexes, pH 7.4; for CLint scaled at 0.5 μM: liver microsomes, calculated from HLM half-life, read-out: HLM Scaled Intrinsic Clearance; for CLint scaled at 0.5 μM / Predicted Max. Bioavailability (% F) / HLM Predicted Systemic Clearance: human; for half-life at 0.5 μM: 0.5 μM compound, 0.5 mg/mL human liver microsomes, 37° C., maxed at 420 minutes, read-out: HLM Elimination half-life (t1/2, min); for Predicted Max. Bioavailability (% F): predicted from HLM data; for HLM Predicted Systemic Clearance: scaled from HLM half-life (Obach method). On the procedure:
A test compound (0.5 μM) was incubated with pooled mixed gender liver microsomes from humans (0.5 mg/mL total protein) at 37° C. in the presence of an NADPH-generating system containing 50 mM, pH 7.4 potassium phosphate buffer, 3 mM magnesium chloride, 1 mM EDTA, 1 mM NADP, 5 mM glusose-6-phosphate, and 1 Unit/mL glucose-6-phosphate dehydrogenase. All concentrations were relative to the final incubation volume of 125 μL. Incubations were conducted at 37° C. for 0, 5, 10, 20, 40, and 60 minutes in a water bath and terminated by rapid mixing with 150 μL of ice-cold acetonitrile containing internal standard. Precipitated proteins were removed by centrifugation prior to LC-MS/MS analysis. Aliquots of the resulting supernatant fractions were analyzed by LC-MS/MS monitoring for depletion of parent compound. The resultant peak area ratio versus time data was fitted to a non-linear regression using XLfit Scientific Curve Fitting Software (IDBS Ltd., Surrey, UK) and the elimination half-life (t1/2, min) was calculated from the slope. […] Additional values calculated included predicted extraction ratio and predicted maximum bioavailability.

In another data set the target is human VMAT2 (Homo sapiens (Human), UniProt Q05940). The data set is described as follows: VMAT2 radioligand binding, 3H-dihydrotetrabenazine competition on human platelet homogenate. The following applies: 10 nM 3H-dihydrotetrabenazine, human platelet homogenate, 25° C., 90 minutes; read-out: VMAT2 Ki. On the procedure:
Examples of techniques for determining the capability of a compound to inhibit VMAT2 are provided below. The procedure was adapted from that described previously (see, e.g., Near, (1986), Mol. Pharmacol. 30: 252-57; Teng, et al., J. Neurochem. 71, 258-65, 1998). Homogenates from human platelets were prepared by homogenization and then washed by centrifugation as described previously (see, e.g., Hoare et al., (2003) Peptides 24:1881-97).
The human VMAT2 Ki values for the compounds listed in Table 15A and Table 15B were determined using the following procedures. Compound dilution series in DMSO were generated from either powder stocks by hand, or from DMSO stocks using serial dilution on a Vantage (Hamilton), or direct dilution using an Echo 655 (Beckman). In a total volume of 0.145 to 0.150 mL in low-binding 96-well plates (Corning #3605), twelve concentrations of test compound were competed against 10 nM ^3H-dihydrotetrabenezine (American Radiolabeled Chemicals) on human platelet homogenate (30 μg membrane protein per well) in VMAT2 binding buffer (Dulbecco's phosphate buffered saline, 1 mM EDTA, pH 7.4). Following incubation at 25° C. for 90 minutes, bound radioligand was collected by rapid filtration onto either GF/B or GF/C glass fiber filters, pretreated with 0.100 polyethylenimine, using either a Unifilter-96 Harvester (PerkinElmer) or Microlab Star (Hamilton). Following harvesting the filter plates were washed with 0.8 mL VMAT2 binding buffer, and bound radioligand was quantified by scintillation counting using a Topcount NXT or Microplate Counter Microbeta (PerkinElmer).

Molecules are shown by their SMILES.

Sequence of human VMAT2 (Q05940 whole entry): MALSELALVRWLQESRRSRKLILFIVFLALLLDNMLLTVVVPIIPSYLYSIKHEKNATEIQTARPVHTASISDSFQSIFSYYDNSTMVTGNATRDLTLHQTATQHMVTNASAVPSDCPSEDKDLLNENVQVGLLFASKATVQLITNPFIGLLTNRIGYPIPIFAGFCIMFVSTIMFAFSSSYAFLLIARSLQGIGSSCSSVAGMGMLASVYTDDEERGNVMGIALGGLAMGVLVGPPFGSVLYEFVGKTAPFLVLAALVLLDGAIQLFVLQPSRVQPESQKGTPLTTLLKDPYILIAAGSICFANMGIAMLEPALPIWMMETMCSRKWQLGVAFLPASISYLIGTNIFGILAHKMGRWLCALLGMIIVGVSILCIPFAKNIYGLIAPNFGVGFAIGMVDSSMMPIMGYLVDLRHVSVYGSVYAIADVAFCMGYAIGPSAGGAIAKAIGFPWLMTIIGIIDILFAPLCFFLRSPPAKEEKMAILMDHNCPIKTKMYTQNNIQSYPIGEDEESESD

Take `CC[C@H](O)COc1cc2c(cc1OC)[C@H]1C[C@@H](O)[C@H](CC(C)(C)C)CN1CC2` [Compound 4-68, (2R,3R,11bR)-3-(2,2-dimethylpropyl)-9-[(2S)-2-hydroxybutoxy]-10-methoxy-1H,2H,3H,4H,6H,7H,11bH-pyrido[2,1-a]isoquinolin-2-ol]: in data set [1], the CLint scaled at 0.5 μM was 6.37 mL/min/kg, the half-life at 0.5 μM amounted to 196 min, the “Predicted Max. Bioavailability (% F)” value was 76 % F and the “HLM Predicted Systemic Clearance” value was 4.83 mL/min/kg. The Ki (commonly the equilibrium dissociation constant of an inhibitor or competing ligand from its target) at human VMAT2 amounted to 29 nM.

For the molecule `COCCOc1cc2c(cc1OC)[C@H]1C[C@@H](O)[C@H](CC(C)(C)C)CN1CC2` [Compound 4-26, (2R,3R,11bR)-3-(2,2-dimethylpropyl)-10-methoxy-9-(2-methoxyethoxy)-1H,2H,3H,4H,6H,7H,11bH-pyrido[2,1-a]isoquinolin-2-ol], in data set [1], the CLint scaled at 0.5 μM is 14.2 mL/min/kg, the half-life at 0.5 μM was found to be 88 min, the “Predicted Max. Bioavailability (% F)” value is 58 % F and the “HLM Predicted Systemic Clearance” value was 8.32 mL/min/kg. On human VMAT2, the Ki was 14 nM.

On to `COc1cc2c(cc1OCCOC(C#N)C1CC1)CCN1C[C@@H](CC(C)(C)C)[C@H](O)C[C@H]21` (stereo partly drawn) [Compound 4-43, 2-(2-{[(2R,3R,11bR)-3-(2,2-dimethylpropyl)-2-hydroxy-10-methoxy-1H,2H,3H,4H,6H,7H,11bH-pyrido[2,1-a]isoquinolin-9-yl]oxy}ethoxy)-2-cyclopropylacetonitrile], for which, in data set [1], the CLint scaled at 0.5 μM was 68.8 mL/min/kg, the half-life at 0.5 μM amounted to 18 min, the “Predicted Max. Bioavailability (% F)” value was 23 % F and the “HLM Predicted Systemic Clearance” value is 15.5 mL/min/kg. For the same molecule, the inhibition constant Ki at human VMAT2 is 4.8 nM.

On to `COc1cc2c(cc1OCC1(C#N)CCC1)CCN1C[C@@H](CC(C)(C)C)[C@H](O)C[C@H]21` [Compound 4-42, 1-({[(2R,3R,11bR)-3-(2,2-dimethylpropyl)-2-hydroxy-10-methoxy-1H,2H,3H,4H,6H,7H,11bH-pyrido[2,1-a]isoquinolin-9-yl]oxy}methyl)cyclobutane-1-carbonitrile], for which, in data set [1], the CLint scaled at 0.5 μM was 24.3 mL/min/kg, the half-life at 0.5 μM was determined as 51 min, the “Predicted Max. Bioavailability (% F)” value is reported as 45 % F and the “HLM Predicted Systemic Clearance” value is 10.98 mL/min/kg. Moreover, the Ki at human VMAT2 was determined as 35 nM.

Turning to `COc1cc2c(cc1OCCC1(C#N)CC1)CCN1C[C@@H](CC(C)(C)C)[C@H](O)C[C@H]21` [Compound 4-45, 1-(2-{[(2R,3R,11bR)-3-(2,2-dimethylpropyl)-2-hydroxy-10-methoxy-1H,2H,3H,4H,6H,7H,11bH-pyrido[2,1-a]isoquinolin-9-yl]oxy}ethyl)cyclopropane-1-carbonitrile], in data set [1], the CLint scaled at 0.5 μM is 9.7 mL/min/kg, the half-life at 0.5 μM came out at 129 min, the “Predicted Max. Bioavailability (% F)” value is 67 % F and the “HLM Predicted Systemic Clearance” value was 6.53 mL/min/kg. For the same molecule, the Ki on human VMAT2 was found to be 7.3 nM.

As to `COc1cc2c(cc1OCC(C)(F)F)CCN1C[C@@H](CC(C)(C)C)[C@H](O)C[C@H]21` [Compound 4-14, (2R,3R,11bR)-9-(2,2-difluoropropoxy)-3-(2,2-dimethylpropyl)-10-methoxy-1H,2H,3H,4H,6H,7H,11bH-pyrido[2,1-a]isoquinolin-2-ol], in data set [1], the CLint scaled at 0.5 μM is ≤ 2.97 mL/min/kg, the half-life at 0.5 μM is ≥ 420 min, the “Predicted Max. Bioavailability (% F)” value is ≥87 % F and the “HLM Predicted Systemic Clearance” value is ≤2.59 mL/min/kg. In addition, the Ki on human VMAT2 was found to be 2.6 nM.

For `COc1cc2c(cc1OC)[C@H]1C[C@@H](O)[C@H](CC(C)(C)C)CN1CC2` [Compound 5-1, (2R,3R,11bR)-3-(2,2-dimethylpropyl)-9,10-dimethoxy-1H,2H,3H,4H,6H,7H,11bH-pyrido[2,1-a]isoquinolin-2-ol], in data set [1], the CLint scaled at 0.5 μM was 15.6 mL/min/kg, the half-life at 0.5 μM amounted to 80 min, the “Predicted Max. Bioavailability (% F)” value is given as 56 % F and the “HLM Predicted Systemic Clearance” value is 8.77 mL/min/kg. The Ki at human VMAT2 came to 6.6 nM.

Turning to `COc1cc2c(cc1OCC(O)CC(F)(F)F)CCN1C[C@@H](CC(C)(C)C)[C@H](O)C[C@H]21` (stereo partly drawn) [Compound 4-62, (2R,3R,11bR)-3-(2,2-dimethylpropyl)-10-methoxy-9-(4,4,4-trifluoro-2-hydroxybutoxy)-1H,2H,3H,4H,6H,7H,11bH-pyrido[2,1-a]isoquinolin-2-ol], in data set [1], the CLint scaled at 0.5 μM is ≤ 2.97 mL/min/kg, the half-life at 0.5 μM is ≥ 420 min, the “Predicted Max. Bioavailability (% F)” value was ≥87 % F and the “HLM Predicted Systemic Clearance” value is ≤2.59 mL/min/kg. For the same molecule, on human VMAT2, the Ki amounted to 3.7 nM.

Turning to `COc1cc2c(cc1OCc1ncc(C)o1)CCN1C[C@@H](CC(C)(C)C)[C@H](O)C[C@H]21` [Compound 4-36, (2R,3R,11bR)-3-(2,2-dimethylpropyl)-10-methoxy-9-[(5-methyl-1,3-oxazol-2-yl)methoxy]-1H,2H,3H,4H,6H,7H,11bH-pyrido[2,1-a]isoquinolin-2-ol], in data set [1], the CLint scaled at 0.5 μM was 13.4 mL/min/kg, the half-life at 0.5 μM stood at 93 min, the “Predicted Max. Bioavailability (% F)” value is 60 % F and the “HLM Predicted Systemic Clearance” value is 8.02 mL/min/kg. Also, the Ki at human VMAT2 was 51 nM.

With `COc1cc2c(cc1OCCOC(C)(C)C#N)CCN1C[C@@H](CC(C)(C)C)[C@H](O)C[C@H]21` [Compound 4-44, 2-(2-{[(2R,3R,11bR)-3-(2,2-dimethylpropyl)-2-hydroxy-10-methoxy-1H,2H,3H,4H,6H,7H,11bH-pyrido[2,1-a]isoquinolin-9-yl]oxy}ethoxy)-2-methylpropanenitrile], in data set [1], the CLint scaled at 0.5 μM was 26.9 mL/min/kg, the half-life at 0.5 μM turned out to be 46 min, the “Predicted Max. Bioavailability (% F)” value was 43 % F and the “HLM Predicted Systemic Clearance” value was 11.47 mL/min/kg. Moreover, the inhibitory constant (Ki) on human VMAT2 was 2.4 nM.

For the molecule `COc1cc2c(cc1OC1CCC1)CCN1C[C@@H](CC(C)(C)C)[C@H](O)C[C@H]21` [Compound 4-32, (2R,3R,11bR)-9-cyclobutoxy-3-(2,2-dimethylpropyl)-10-methoxy-1H,2H,3H,4H,6H,7H,11bH-pyrido[2,1-a]isoquinolin-2-ol], in data set [1], the CLint scaled at 0.5 μM is 66.5 mL/min/kg, the half-life at 0.5 μM came to 19 min, the “Predicted Max. Bioavailability (% F)” value is 23 % F and the “HLM Predicted Systemic Clearance” value was 15.38 mL/min/kg. At human VMAT2, the Ki is 0.59 nM.

As for `COc1cc2c(cc1OCC(F)F)CCN1C[C@@H](CC(C)(C)C)[C@H](O)C[C@H]21` [Compound 4-13, (2R,3R,11bR)-9-(2,2-difluoroethoxy)-3-(2,2-dimethylpropyl)-10-methoxy-1H,2H,3H,4H,6H,7H,11bH-pyrido[2,1-a]isoquinolin-2-ol], in data set [1], the CLint scaled at 0.5 μM was ≤ 2.97 mL/min/kg, the half-life at 0.5 μM was ≥ 420 min, the “Predicted Max. Bioavailability (% F)” value is ≥87 % F and the “HLM Predicted Systemic Clearance” value was ≤2.59 mL/min/kg. Also, the Ki on human VMAT2 came to 2.2 nM.

Take `COc1cc2c(cc1OCCc1ccc(C(F)(F)F)cc1)CCN1C[C@@H](CC(C)(C)C)[C@H](O)C[C@H]21` [Compound 4-74, (2R,3R,11bR)-3-(2,2-dimethylpropyl)-10-methoxy-9-{2-[4-(trifluoromethyl)phenyl]ethoxy}-1H,2H,3H,4H,6H,7H,11bH-pyrido[2,1-a]isoquinolin-2-ol]: in data set [1], the CLint scaled at 0.5 μM is 34.6 mL/min/kg, the half-life at 0.5 μM is 36 min, the “Predicted Max. Bioavailability (% F)” value was 37 % F and the “HLM Predicted Systemic Clearance” value was 12.68 mL/min/kg. Further, the Ki at human VMAT2 was found to be 65 nM.

For the molecule `COc1cc2c(cc1OCC1(CC#N)CC1)CCN1C[C@@H](CC(C)(C)C)[C@H](O)C[C@H]21` [Compound 4-46, 2-[1-({[(2R,3R,11bR)-3-(2,2-dimethylpropyl)-2-hydroxy-10-methoxy-1H,2H,3H,4H,6H,7H,11bH-pyrido[2,1-a]isoquinolin-9-yl]oxy}methyl)cyclo-propyl]acetonitrile], in data set [1], the CLint scaled at 0.5 μM was 45.1 mL/min/kg, the half-life at 0.5 μM was found to be 28 min, the “Predicted Max. Bioavailability (% F)” value is listed as 31 % F and the “HLM Predicted Systemic Clearance” value is 13.86 mL/min/kg. For the same molecule, at human VMAT2, the Ki turned out to be 25 nM.
